According to ChEMBL document CHEMBL4837259, “Comprehensive Approach of 19F Nuclear Magnetic Resonance, Enzymatic, and In Silico Methods for Site-Specific Hit Selection and Validation of Fragment Molecules that Inhibit Methionine γ-Lyase Activity” (J Med Chem, 2021):
Active and inactive are the calls of the source. No cut-off for these calls is given here.

How the values were obtained:
[1] = test system: Fusobacterium nucleatum; experiment: Inhibition of Fusobacterium nucleatum ATCC 25586 recombinant MGL R58A mutant expressed in Escherichia coli BL21 (DE3) assessed as decrease in signal intensity by measuring recovery ratio by 19F NMR based competition assay relative to wild type; parameters: scale not given: the % may be the effect or the level left
[2] = test system: Fusobacterium nucleatum; experiment: Inhibition of Fusobacterium nucleatum ATCC 25586 recombinant MGL K238A mutant expressed in Escherichia coli BL21 (DE3) assessed as decrease in signal intensity by measuring recovery ratio by 19F NMR based competition assay relative to wild type; parameters: concentration or dose not given beside the values
[3] = molecular target: T1, L-methionine gamma-lyase (Fusobacterium nucleatum subsp. nucleatum) (UniProt Q8RDT4); experiment: Inhibition of Fusobacterium nucleatum ATCC 25586 recombinant wild type MGL expressed in Escherichia coli BL21 (DE3) assessed as decrease in signal intensity by 19F NMR based competition assay relative to control; parameters: concentration or dose not given beside the values
T1 sequence (whole entry): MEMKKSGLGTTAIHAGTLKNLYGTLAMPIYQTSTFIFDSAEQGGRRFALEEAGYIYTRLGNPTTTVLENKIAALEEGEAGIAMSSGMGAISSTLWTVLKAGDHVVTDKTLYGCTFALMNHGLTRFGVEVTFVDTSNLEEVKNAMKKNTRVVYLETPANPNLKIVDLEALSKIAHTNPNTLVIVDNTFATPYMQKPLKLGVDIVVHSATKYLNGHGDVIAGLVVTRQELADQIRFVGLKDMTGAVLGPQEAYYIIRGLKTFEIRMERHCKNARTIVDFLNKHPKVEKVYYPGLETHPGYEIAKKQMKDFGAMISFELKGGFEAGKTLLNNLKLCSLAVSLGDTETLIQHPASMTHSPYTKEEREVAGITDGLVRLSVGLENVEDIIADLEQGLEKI

[4] = test system: Fusobacterium nucleatum; experiment: Inhibition of Fusobacterium nucleatum ATCC 25586 recombinant MGL R58K mutant expressed in Escherichia coli BL21 (DE3) assessed as decrease in signal intensity by measuring recovery ratio by 19F NMR based competition assay relative to wild type; parameters: scale not given: the % may be the effect or the level left
[5] = test system: Fusobacterium nucleatum; experiment: Inhibition of Fusobacterium nucleatum ATCC 25586 recombinant MGL R373A mutant expressed in Escherichia coli BL21 (DE3) assessed as decrease in signal intensity by measuring recovery ratio by 19F NMR based competition assay relative to wild type; parameters: scale not given: the % may be the effect or the level left
[6] = test system: Fusobacterium nucleatum; experiment: Inhibition of Fusobacterium nucleatum ATCC 25586 recombinant MGL Y111F mutant expressed in Escherichia coli BL21 (DE3) assessed as decrease in signal intensity by measuring recovery ratio by 19F NMR based competition assay relative to wild type; parameters: concentration or dose not given beside the values
[7] = test system: Fusobacterium nucleatum; experiment: Inhibition of Fusobacterium nucleatum ATCC 25586 recombinant MGL R373K mutant expressed in Escherichia coli BL21 (DE3) assessed as decrease in signal intensity by measuring recovery ratio by 19F NMR based competition assay relative to wild type; parameters: concentration or dose not given beside the values
[8] = molecular target: T1, L-methionine gamma-lyase (Fusobacterium nucleatum subsp. nucleatum); experiment: Inhibition of Fusobacterium nucleatum ATCC 25586 recombinant wild type MGL expressed in Escherichia coli BL21 (DE3) assessed as formation of 2-ketobutyrate using L-methionine as substrate by enzymatic assay; parameters: concentration or dose not given beside the values; conditions: concentration not given here
[9] = test system: Fusobacterium nucleatum; experiment: Inhibition of Fusobacterium nucleatum ATCC 25586 recombinant MGL C113S mutant expressed in Escherichia coli BL21 (DE3) assessed as decrease in signal intensity by measuring recovery ratio by 19F NMR based competition assay relative to wild type; parameters: scale not given: the % may be the effect or the level left
[10] = test system: Fusobacterium nucleatum; experiment: Inhibition of Fusobacterium nucleatum ATCC 25586 recombinant MGL Y56F mutant expressed in Escherichia coli BL21 (DE3) assessed as decrease in signal intensity by measuring recovery ratio by 19F NMR based competition assay relative to wild type; parameters: concentration or dose not given beside the values

In the case of `O=C(O)c1cn(-c2ccccc2F)cn1`, the Activity [1] is reported as 80%, the Activity [2] is reported as “inactive” and the Activity [3] is reported as 26%. The Activity [4] was 80%, the Activity [5] was 50% and the Activity [6] was “Active”. The Activity [7] was “Active”, the inhibition [8] was -5.3% and the Activity [9] was “Active”. For the same compound, the Activity [10] was “Active”.

Compound `O=C(O)c1cnn(-c2ccc(F)cc2)c1` has an Activity [1] of 80%, an Activity [2] of 50% and an Activity [3] of 69%. For the same compound, the Activity [4] was 50%, the Activity [5] was 80% and the Activity [6] was 80%. The Activity [7] was “Active”, the inhibition [8] was -0.6% and the Activity [9] was “Active”. The Activity [10] was 80%.

`O=C(O)c1ccnc(OC(F)F)c1` was tested, and the Activity [1] was 80%, the Activity [2] was “Active” and the Activity [3] was 67%. The Activity [4] was 80%, the Activity [5] was 80% and the Activity [6] was “Active”. It also gave an Activity [7] of 50%, an inhibition [8] of 1.5% and an Activity [9] of 50%. The Activity [10] was 80%.

Compound `CC(C)(Cc1ccc(C(F)(F)F)cc1)C(=O)O` has an Activity [1] of 80%, an Activity [2] of 80% and an Activity [3] of 55%. For the same compound, the Activity [4] was 50%, the Activity [5] was 50% and the Activity [6] was 80%. The Activity [7] was “inactive”, the inhibition [8] was 8.3% and the Activity [9] was “Active”. It also gave an Activity [10] of 80%.

`O=C(O)c1cc(OC(F)(F)F)ccn1` was tested, and the Activity [1] was 80%, the Activity [2] was “Active” and the Activity [3] was 4%. It also gave an Activity [4] of 80%, an Activity [5] of 80% and an Activity [6] of 50%. The Activity [7] was “Active”, the inhibition [8] was -6.8% and the Activity [9] was “Active”. It also gave an Activity [10] of 80%.

For `O=C(O)c1cncc(OCC(F)(F)F)c1`, the Activity [1] was 80%, the Activity [2] was “Active” and the Activity [3] was 35%. It also gave an Activity [4] of 80%, an Activity [5] of 50% and an Activity [6] of 50%. The Activity [7] was “Active”, the inhibition [8] was 9.1% and the Activity [9] was “inactive”. The Activity [10] was 80%.

`CC(C)(CC(=O)O)c1ccc(F)cc1` was tested, and the Activity [1] was 80%, the Activity [2] was 50% and the Activity [3] was 57%. It also gave an Activity [4] of 80%, an Activity [5] of 80% and an Activity [6] of 80%. The Activity [7] was “inactive”, the inhibition [8] was -3.3% and the Activity [9] was “inactive”. For the same compound, the Activity [10] was 80%.

In the case of `O=C(O)c1cc(C(F)(F)F)nn1-c1ccccc1`, the Activity [1] is reported as 80%, the Activity [2] is reported as “Active” and the Activity [3] is reported as 49%. It also gave an Activity [4] of 80%, an Activity [5] of 50% and an Activity [6] of 80%. The Activity [7] was “Active”, the inhibition [8] was 23.9% and the Activity [9] was 50%. For the same compound, the Activity [10] was 80%.

`Cc1cccc2c(C(C(=O)O)C(F)(F)F)c[nH]c12` (stereo not given) gave an Activity [1] of 80%, an Activity [2] of 50% and an Activity [3] of 44%. The Activity [4] was 50%, the Activity [5] was 50% and the Activity [6] was 50%. The Activity [7] was “Active”, the inhibition [8] was -5.3% and the Activity [9] was “inactive”. For the same compound, the Activity [10] was 80%.

`CCOC(=O)c1nc(-c2ccccc2F)no1` was tested, and the Activity [1] was 50%, the Activity [2] was “Active” and the Activity [3] was 82%. For the same compound, the Activity [4] was 50%, the Activity [5] was 80% and the Activity [6] was 50%. For the same compound, the Activity [7] was “Active”, the inhibition [8] was 13.3% and the Activity [9] was “Active”. The Activity [10] was 80%.

In the case of `O=C(O)c1ccc(OC(F)F)nc1`, the Activity [1] is reported as 50%, the Activity [2] is reported as “Active” and the Activity [3] is reported as 78%. For the same compound, the Activity [4] was 50%, the Activity [5] was 80% and the Activity [6] was “Active”. The Activity [7] was “Active”, the inhibition [8] was 12.6% and the Activity [9] was “Active”. For the same compound, the Activity [10] was 80%.

In the case of `O=C(O)c1cn(-c2ccc(F)cc2)cn1`, the Activity [1] is reported as 80%, the Activity [2] is reported as “Active” and the Activity [3] is reported as 58%. For the same compound, the Activity [4] was 80%, the Activity [5] was 80% and the Activity [6] was “Active”. The Activity [7] was “Active”, the inhibition [8] was 6.2% and the Activity [9] was 50%. For the same compound, the Activity [10] was “Active”.
